From ChEMBL document CHEMBL5154692, “Synthesis of novel thiazolyl hydrazone derivatives as potent dual monoamine oxidase-aromatase inhibitors” (Eur J Med Chem, 2022)

Experiments:
[1] = target: T1, Amine oxidase [flavin-containing] A (Homo sapiens, UniProt P21397); assay: Inhibition of MAO-A (unknown origin) at 1 mM relative to control
T1 sequence (P21397 whole entry): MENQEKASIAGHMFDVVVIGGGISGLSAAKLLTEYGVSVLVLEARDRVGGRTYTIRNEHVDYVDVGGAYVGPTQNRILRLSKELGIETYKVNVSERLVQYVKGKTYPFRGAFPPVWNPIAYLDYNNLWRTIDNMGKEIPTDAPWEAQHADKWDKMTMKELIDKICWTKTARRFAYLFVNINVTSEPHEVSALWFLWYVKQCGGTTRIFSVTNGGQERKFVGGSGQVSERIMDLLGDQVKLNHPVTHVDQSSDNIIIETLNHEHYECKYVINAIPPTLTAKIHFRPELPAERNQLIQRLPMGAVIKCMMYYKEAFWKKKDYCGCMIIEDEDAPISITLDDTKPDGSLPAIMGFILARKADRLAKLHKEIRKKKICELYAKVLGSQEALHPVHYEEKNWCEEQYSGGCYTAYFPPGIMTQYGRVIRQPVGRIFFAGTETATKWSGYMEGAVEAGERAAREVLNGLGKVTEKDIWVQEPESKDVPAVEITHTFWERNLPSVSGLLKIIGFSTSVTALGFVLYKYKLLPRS

[2] = target: T1, Amine oxidase [flavin-containing] A; assay: Inhibition of MAO-A (unknown origin) at 10 mM relative to control; parameters: dose or concentration left out as unconfirmed
[3] = target: T2, Amine oxidase [flavin-containing] B (Homo sapiens, UniProt P27338); assay: Inhibition of MAO-B (unknown origin)
T2 sequence (P27338 whole entry): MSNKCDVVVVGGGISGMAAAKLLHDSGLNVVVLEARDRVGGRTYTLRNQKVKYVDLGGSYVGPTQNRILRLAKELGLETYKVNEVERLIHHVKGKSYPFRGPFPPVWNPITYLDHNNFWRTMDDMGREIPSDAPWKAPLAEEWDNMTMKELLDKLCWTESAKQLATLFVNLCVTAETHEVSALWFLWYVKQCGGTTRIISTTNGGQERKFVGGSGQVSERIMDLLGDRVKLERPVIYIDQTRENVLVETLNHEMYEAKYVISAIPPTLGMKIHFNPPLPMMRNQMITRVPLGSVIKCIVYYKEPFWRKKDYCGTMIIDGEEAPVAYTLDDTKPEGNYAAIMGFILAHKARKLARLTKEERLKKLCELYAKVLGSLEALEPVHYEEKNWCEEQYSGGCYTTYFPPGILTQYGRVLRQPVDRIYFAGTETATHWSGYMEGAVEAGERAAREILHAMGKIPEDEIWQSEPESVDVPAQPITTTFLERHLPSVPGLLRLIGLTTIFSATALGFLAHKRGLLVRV

Aromatase = target: T3, Aromatase (Homo sapiens, UniProt P11511); assay: Inhibition of aromatase (unknown origin)
T3 sequence (P11511 whole entry): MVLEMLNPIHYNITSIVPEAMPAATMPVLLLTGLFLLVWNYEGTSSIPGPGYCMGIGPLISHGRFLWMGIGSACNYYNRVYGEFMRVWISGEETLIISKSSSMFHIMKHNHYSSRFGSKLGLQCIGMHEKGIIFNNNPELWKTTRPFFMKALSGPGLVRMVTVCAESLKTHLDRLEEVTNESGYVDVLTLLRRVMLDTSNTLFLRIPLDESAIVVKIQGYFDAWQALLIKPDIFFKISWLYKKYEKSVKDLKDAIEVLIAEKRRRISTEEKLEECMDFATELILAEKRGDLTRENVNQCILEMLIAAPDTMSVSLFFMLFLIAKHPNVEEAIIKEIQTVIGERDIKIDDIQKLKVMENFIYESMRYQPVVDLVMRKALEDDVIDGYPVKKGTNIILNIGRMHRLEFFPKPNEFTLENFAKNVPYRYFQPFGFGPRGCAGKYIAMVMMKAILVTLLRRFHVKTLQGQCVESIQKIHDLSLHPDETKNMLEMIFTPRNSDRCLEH

[4] = target: T1, Amine oxidase [flavin-containing] A; assay: Inhibition of MAO-A (unknown origin)

| Compound | inhibition at 1000 µM [1] | inhibition [2] | IC50 [3] | IC50 (Aromatase) | IC50 [4] |
| --- | --- | --- | --- | --- | --- |
| COc1ccc(-c2csc(N/N=C/c3ccc4cc(OC)ccc4c3)n2)cc1 | 50% | 28.1% | – | – | – |
| COc1ccc2cc(/C=N/Nc3nc(-c4ccc(F)cc4)cs3)ccc2c1 | 52.2% | 35.5% | – | – | – |
| COc1ccc2cc(/C=N/Nc3nc(-c4ccc(C)cc4)cs3)ccc2c1 | 49.8% | 31.1% | – | – | – |
| CCOC(=O)Cc1csc(N/N=C/c2ccc3cc(OC)ccc3c2)n1 | 60.2% | 30.2% | 39 nM | 31 nM | – |
| COc1ccc2cc(/C=N/Nc3nc(-c4ccccc4)c(C)s3)ccc2c1 | 90.9% | 82.3% | – | – | 72 nM |
| COc1ccc2cc(/C=N/NC3=NC(=O)CS3)ccc2c1 | 55.8% | 33.9% | – | 42 nM | – |
| COc1ccc2cc(/C=N/Nc3nc(-c4cccc([N+](=O)[O-])c4)cs3)ccc2c1 | 90.5% | 84.1% | 46 nM | – | 68 nM |
| COc1ccc2cc(/C=N/Nc3nc(-c4ccc5ccccc5c4)cs3)ccc2c1 | 55.9% | 35.7% | – | – | – |
| COc1ccc2cc(/C=N/Nc3nc(-c4ccc(Cl)cc4)cs3)ccc2c1 | 48.4% | 28.8% | – | – | – |
| COc1ccc2cc(/C=N/Nc3nc(-c4ccc(-c5ccccc5)cc4)cs3)ccc2c1 | 59.2% | 34.2% | – | – | – |
| COc1ccc2cc(/C=N/Nc3nc(-c4cccc(Cl)c4)cs3)ccc2c1 | 48.4% | 39.9% | – | – | – |
| COc1ccc2cc(/C=N/Nc3nc(-c4ccc(S(C)(=O)=O)cc4)cs3)ccc2c1 | 53.5% | 37% | – | – | – |
| COc1ccc2cc(/C=N/Nc3nc(-c4ccccc4)cs3)ccc2c1 | 51.4% | 26.6% | – | – | – |
| COc1ccc2cc(/C=N/Nc3nc(-c4ccc(Cl)c(Cl)c4)cs3)ccc2c1 | 47.7% | 32.5% | – | – | – |
| COc1ccc2cc(/C=N/Nc3nc(-c4ccc([N+](=O)[O-])cc4)cs3)ccc2c1 | 57.8% | 33.4% | 82 nM | – | – |
| COc1ccc2cc(/C=N/Nc3nc(-c4cccc(F)c4)cs3)ccc2c1 | 59.4% | 32.1% | – | – | – |
| CCOC(=O)c1sc(N/N=C/c2ccc3cc(OC)ccc3c2)nc1C | 58.2% | 29.3% | – | – | – |
| COc1ccc2cc(/C=N/Nc3nc(-c4ccc(C#N)cc4)cs3)ccc2c1 | 58.7% | 30.4% | – | – | – |
| COc1cccc(-c2csc(N/N=C/c3ccc4cc(OC)ccc4c3)n2)c1 | 56.7% | 21.9% | – | – | – |
| COc1ccc2cc(/C=N/Nc3nc(-c4cc5ccccc5o4)cs3)ccc2c1 | 58.4% | 27.7% | – | – | – |
| COc1ccc2cc(/C=N/Nc3nc(C)c(C)s3)ccc2c1 | 54.4% | 30.9% | – | – | – |
